Data from patent publication US11717536B2, “Treatment for periodontitis” (THE UNIVERSITY OF MELBOURNE, priority 2017, dated 2023).
Several values for one entry are separate records, joined by “and”; a condition that tells them apart may be missing. Equal values may be shown once. Marks after values point to notes of the source that are not given here.

What was measured:
[1] = tested on: Fusobacterium nucleatum (ATCC 10953); assay: Six species polymicrobial biofilm in constant-depth film fermenter, species composition: F. nucleatum; format: cell-based
Procedure: (§1) To model supragingival plaque six representative oral bacterial species, Streptococcus sanguinis (NCTC 7863), Streptococcus mutans Ingbritt, Actinomyces naeslundii (NCTC 10301), Veillonella parvula (ATCC 17745), Lactobacillus casei (NCDO 161) and Fusobacterium nucleatum (ATCC 10953) (Table 5) were cultured as a polymicrobial biofilm on a human enamel substratum in a constant-depth film fermenter (CDFF; Cardiff University, UK). The CDFF was housed in a 37° C. incubator under anaerobic conditions which were maintained by a constant flow of 5% CO2 in N2 at 1 L/h. The CDFF contained 15 removable polytetrafluoroethylene (PTFE) pans on a circular platform that was rotated at a constant speed of three rpm. The biofilms were grown on three enamel blocks (see below) in each PTFE pan using an artificial saliva medium (ASM, 2.5 g/L mucin type II (porcine, gastric, Sigma), 2.0 g/L bacteriological peptone (Oxoid), 2.0 g/L tryptone (Oxoid), 1.0 g/L yeast extract (Oxoid), 0.35 g/L NaCl, 0.2 g/L KCl, 0.2 mg/L vitamin K, 1 mg/L haemin and 0.1 g/L cysteine hydrochloride) at a constant flow rate of 30 mL/h. Prior to inoculation, the CDFF pan surfaces were conditioned for 24 h with ASM at a flow rate of 10 mL/h (McBain et al (2003) J Appl Microbiol. 94(4):655-66). In order to mimic in vivo bacterial growth conditions in the oral cavity with dietary sugar intake and to provide a high cariogenic challenge, a 1% (w/v) sucrose solution in ASM was pumped into the CDFF four times a day at four hourly intervals with a flow rate of 30 mL/h for 10 min.
(§2) Three treatments were applied to the polymicrobial biofilms: 290 ppm fluoride with 220 ppm fluoride as SnF2 and 70 ppm fluoride as NaF (referred to as SnF2), 2% CPP-ACP and 2% CPP-ACP-SnF2. These treatments were compared with the control in which the test solution was replaced with ASM. Each treatment was applied using two 10 min pulses of the test solution in ASM with a flow rate of 30 mL/h. The first pulse started 30 min prior to the first sucrose pulse of the morning and the second started 3 h 30 min after the final sucrose pulse of the day.
(§3) On day 6, 12 and 19 after inoculation four pans were removed aseptically from the CDFF and replaced with blank sterile pans. Enamel blocks from the pans were removed for bacterial enumeration and transverse microradiography.
Planktonic and loosely attached bacterial cells were firstly removed from the enamel blocks by light washing with 100 μL ASM. To harvest the biofilm cells on each block, the surface was scraped with a sterile scraper with 1 mL of ASM. The biofilm bacterial cells were sedimented by centrifugation (10,000 g, 10 min), the supernatant carefully decanted and the cell pellets stored at −80° C. until required for DNA extraction. The enamel blocks were then used for sectioning and microradiography.
For each timepoint, DNA was extracted separately from 8-9 enamel blocks using PowerLyzer® PowerSoil® DNA Isolation Kits (MoBio Laboratories) following the manufacturers “Vacuum Protocol” with a Precellys® bead homogeniser (Bertin Technologies). Samples were quantified using a Qubit™ dsDNA HS assay kit (Life Technologies) before being stored at −80° C.
The Ion Amplicon Library Preparation Fusion Method (Thermo Fisher Scientific), was adapted for amplification of the V4 region of the 16S rRNA gene. […]

[2] = tested on: Streptococcus sanguinis (NCTC 7863); assay: Six species polymicrobial biofilm in constant-depth film fermenter, species composition: S. sanguinis; format: cell-based
Procedure: as §1, §2, §3
(§4) Planktonic and loosely attached bacterial cells were firstly removed from the enamel blocks by light washing with 100 μL ASM. […]
(§5) For each timepoint, DNA was extracted separately from 8-9 enamel blocks using PowerLyzer® PowerSoil® DNA Isolation Kits (MoBio Laboratories) following the manufacturers “Vacuum Protocol” with a Precellys® bead homogeniser (Bertin Technologies). Samples were quantified using a Qubit™ dsDNA HS assay kit (Life Technologies) before being stored at −80° C. […]

[3] = tested on: polymicrobial biofilm; assay: Biofilm ion analyses (calcium, phosphorous, tin; ICP-MS)
Procedure: To model supragingival plaque six representative oral bacterial species, Streptococcus sanguinis (NCTC 7863), Streptococcus mutans Ingbritt, Actinomyces naeslundii (NCTC 10301), Veillonella parvula (ATCC 17745), Lactobacillus casei (NCDO 161) and Fusobacterium nucleatum (ATCC 10953) (Table 5) were cultured as a polymicrobial biofilm on a human enamel substratum in a constant-depth film fermenter (CDFF; Cardiff University, UK). […] The CDFF contained 15 removable polytetrafluoroethylene (PTFE) pans on a circular platform that was rotated at a constant speed of three rpm. […] These treatments were compared with the control in which the test solution was replaced with ASM. […] The first pulse started 30 min prior to the first sucrose pulse of the morning and the second started 3 h 30 min after the final sucrose pulse of the day. Calcium, phosphorous and tin content of polymicrobial biofilm samples were determined by inductively-coupled mass spectrometry essentially as described previously [[…] et al 2005].

[4] = tested on: Lactobacillus casei (NCDO 161); assay: Six species polymicrobial biofilm in constant-depth film fermenter, species composition: L. casei; format: cell-based; conditions: 19 days; mean ± standard deviation; n = 5-21
Procedure: as §1, §2, §3, §4, §5

[5] = tested on: enamel substratum of the polymicrobial biofilm caries model; assay: Enamel subsurface demineralization in the polymicrobial biofilm caries model (transverse microradiography); parameters: species or system human; conditions: for integrated mineral loss ΔZd / lesion depth LD: twice daily 10 min pulses, mean ± SD
Procedure: as §1, §2, §3
Three hundred and sixty extracted human third molars were obtained under University of Melbourne ethics approval (HREC #1237616) and sterilized by exposure to 4.1 kGy of gamma radiation. Enamel blocks were cut from the teeth with approximately 6×3×3 mm dimensions using a water-cooled diamond blade saw (Minitom, Struers) and polished using a RotoPol/RotoForce lapping instrument with 1200, 2400, 4000 grit lapping papers (Struers) and 3 and 1 μm diamond polishing pastes (Struers). The blocks were positioned in custom made CDFF pans at a depth of 100 μm and sealed in place with yellow sticky wax (Kemdent) and sterilized by exposure to 4.1 kGy of gamma radiation.
Transverse microradiography was carried out essentially as described previously [Shen et al 2011]. […] The lesion depth (μm) was determined as the distance to the point at which the mineral content reaches 95% of the sound enamel value. The integrated mineral loss (IML), represented as ΔZd, was calculated by trapezoidal integration as the area between the sound-enamel densitometric profile and that of the demineralized enamel densitometric profile in vol % min·μm.

[6] = tested on: Actinomyces naeslundii (NCTC 10301); assay: Six species polymicrobial biofilm in constant-depth film fermenter, species composition: A. naeslundii; format: cell-based
Procedure: as §1
(§6) Three treatments were applied to the polymicrobial biofilms: 290 ppm fluoride with 220 ppm fluoride as SnF2 and 70 ppm fluoride as NaF (referred to as SnF2), 2% CPP-ACP and 2% CPP-ACP-SnF2. […]
as §5

[7] = tested on: Streptococcus mutans Ingbritt; assay: Six species polymicrobial biofilm in constant-depth film fermenter, species composition: S. mutans; format: cell-based; conditions: 19 days; mean ± standard deviation; n = 5-21
Procedure: as §1, §6, §5

[8] = tested on: Veillonella parvula (ATCC 17745); assay: Six species polymicrobial biofilm in constant-depth film fermenter, species composition: V. parvula; format: cell-based; conditions: 19 days; mean ± standard deviation; n = 5-21
Procedure: as §1, §6, §5

[9] = 19 days, mean ± standard deviation, n = 5-21

## [F][Sn][F] [SnF2, stannous fluoride, reference compound]
[1]; [9]
  F. nucleatum as a percentage of total bacteria in the biofilm: 0.02 ± 0.01^cd %
[1]; day 19, FIG. 5B
  change in abundance of F. nucleatum after treatment relative to the control (increase): −2%
[2]; [9]
  S. sanguinis as a percentage of total bacteria in the biofilm: 17.47 ± 3.44^a %
[2]; twice daily treatment, day 19
  change in abundance of S. sanguinis relative to the control (in words): significantly increased
[3]; ICP-MS
  increase in calcium in the biofilm relative to the control: two-fold
  increase in phosphorous in the biofilm relative to the control: two-fold
  peak stannous concentration in the biofilm: 1.0 nmol/mg biofilm wet weight
[3]; during SnF2 treatment
  Sn accumulated in the polymicrobial biofilms, concentration: ≤ 119 ppm
[4]
  L. casei as a percentage of total bacteria in the biofilm: 10.67 ± 6.92^cd %
[5]; Day 6
  integrated mineral loss ΔZd: 636.7 ± 129.4 vol % min · μm
  lesion depth LD: 17.6 ± 1.2^c μm
[5]; Day 12
  integrated mineral loss ΔZd: 1352.1 ± 147.3^bde vol % min · μm
  lesion depth LD: 37.1 ± 5.3^bdf μm
[5]; Day 19
  integrated mineral loss ΔZd: 2096.3 ± 66.7^ae vol % min · μm
  lesion depth LD: 46.1 ± 4.7^be μm
[5]; between day 6 and day 19
  rate of demineralization: 112.1 vol % min·μm/day
[5]; between day 6 and day 19, twice daily exposure
  reduction in rate of demineralization relative to control: 50.2% and 50%
[6]; [9]
  A. naeslundii as a percentage of total bacteria in the biofilm: 5.54 ± 1.74^abc %
[6]; twice daily treatment, day 19
  change in abundance of A. naeslundii relative to the control (in words): significantly reduced
[7]
  S. mutans as a percentage of total bacteria in the biofilm: 59.82 ± 4.59^a %
[8]
  V. parvula as a percentage of total bacteria in the biofilm: 6.50 ± 1.48^b %
